Measurements: PubChem BioAssay (NCI)
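Values below derive from 48-hour exposures of cells grown in 96-well plates, with endpoints linearly interpolated between the two concentrations bracketing the appropriate inhibition level. TGI: total growth inhibition.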

Legend:
Assay in all cases: NCI-60 cell line screen, 48 h
A549 NSCLC = system: A549 NSCLC
ACHN renal = system: ACHN renal
BT-549 breast = system: BT-549 breast
CAKI-1 renal = system: CAKI-1 renal
CCRF-CEM leukemia = system: CCRF-CEM leukemia
COLO 205 colon = system: COLO 205 colon
DU-145 prostate = system: DU-145 prostate
EKVX NSCLC = system: EKVX NSCLC
HCC-2998 colon = system: HCC-2998 colon
HCT-116 colon = system: HCT-116 colon
HOP-62 NSCLC = system: HOP-62 NSCLC
HOP-92 NSCLC = system: HOP-92 NSCLC
HT29 colon = system: HT29 colon
IGROV1 ovarian = system: IGROV1 ovarian
K-562 leukemia = system: K-562 leukemia
KM12 colon = system: KM12 colon
LOX IMVI melanoma = system: LOX IMVI melanoma
M14 melanoma = system: M14 melanoma
MCF7 breast = system: MCF7 breast
MDA-MB-231 breast = system: MDA-MB-231 breast
MDA-MB-435 = system: MDA-MB-435
MDA-N = system: MDA-N
MOLT-4 leukemia = system: MOLT-4 leukemia
NCI-H226 lung = system: NCI-H226 lung
NCI-H23 lung = system: NCI-H23 lung
NCI-H460 lung = system: NCI-H460 lung
NCI/ADR-RES ovarian = system: NCI/ADR-RES ovarian
OVCAR-3 ovarian = system: OVCAR-3 ovarian
OVCAR-4 ovarian = system: OVCAR-4 ovarian
OVCAR-5 ovarian = system: OVCAR-5 ovarian
OVCAR-8 ovarian = system: OVCAR-8 ovarian
PC-3 prostate = system: PC-3 prostate
RPMI-8226 leukemia = system: RPMI-8226 leukemia
RXF 393 renal = system: RXF 393 renal
SF-268 CNS = system: SF-268 CNS
SF-295 CNS = system: SF-295 CNS
SF-539 CNS = system: SF-539 CNS
SK-MEL-2 melanoma = system: SK-MEL-2 melanoma
SK-MEL-28 melanoma = system: SK-MEL-28 melanoma
SK-OV-3 ovarian = system: SK-OV-3 ovarian
SN12C renal = system: SN12C renal
SNB-19 CNS = system: SNB-19 CNS
SNB-75 CNS = system: SNB-75 CNS
SW-620 colon = system: SW-620 colon
T-47D breast = system: T-47D breast
TK-10 renal = system: TK-10 renal
U251 CNS = system: U251 CNS
UACC-257 melanoma = system: UACC-257 melanoma
UACC-62 melanoma = system: UACC-62 melanoma
UO-31 renal = system: UO-31 renal
786-0 renal = system: 786-0 renal
HCT-15 colon = system: HCT-15 colon
HL-60(TB) leukemia = system: HL-60(TB) leukemia
SK-MEL-5 melanoma = system: SK-MEL-5 melanoma

Measured: TGI

COc1cc2c(cc1OC)C1Cc3cc(OC)c(OC)cc3C(C2)O1
not listed: 786-0 renal | HCT-15 colon | HL-60(TB) leukemia | SK-MEL-5 melanoma
> 100 µM: all other assays above

CC1=CC(=O)C(=CN2C(=O)/C(=C\c3cccnc3)NC2=S)C(=O)O1
not listed: CCRF-CEM leukemia | K-562 leukemia | RPMI-8226 leukemia | RXF 393 renal | SF-268 CNS | UACC-62 melanoma
> 100 µM: all other assays above
